In ChEMBL document CHEMBL1139906, “Structure function analysis of benzalacetone synthase from Rheum palmatum” (Bioorg Med Chem Lett, 2007):

Experiments:
Rheum palmatum = experiment: Activity of Rheum palmatum benzalacetone synthase S338V mutant
[1] = substrate: CC(C)(COP(=O)(O)OP(=O)(O)OC[C@H]1O[C@@H](n2cnc3c(N)ncnc32)[C@H](O)[C@@H]1OP(=O)(O)O)[C@@H](O)C(=O)NCCC(=O)NCCSC(=O)/C=C/c1ccc(O)cc1; experiment: Activity of Rheum palmatum benzalacetone synthase

CC(C)(COP(=O)(O)OP(=O)(O)OC[C@H]1O[C@@H](n2cnc3c(N)ncnc32)[C@H](O)[C@@H]1OP(=O)(O)O)[C@@H](O)C(=O)NCCC(=O)NCCSC(=O)/C=C/c1ccc(O)cc1
Km (Rheum palmatum): 9.4 µM
kcat (Rheum palmatum): 0.053 s⁻¹

B1: Polyketide synthase BAS (Rheum palmatum), Q94FV7 (protein)
chain: MATEEMKKLATVMAIGTANPPNCYYQADFPDFYFRVTNSDHLINLKQKFKRLCENSRIEKRYLHVTEEILKENPNIAAYEATSLNVRHKMQVKGVAELGKEAALKAIKEWGQPKSKITHLIVCCLAGVDMPGADYQLTKLLDLDPSVKRFMFYHLGCYAGGTVLRLAKDIAENNKGARVLIVCSEMTTTCFRGPSETHLDSMIGQAILGDGAAAVIVGADPDLTVERPIFELVSTAQTIVPESHGAIEGHLLESGLSFHLYKTVPTLISNNIKTCLSDAFTPLNISDWNSLFWIAHPGGPAILDQVTAKVGLEKEKLKVTRQVLKDYGNMSSATVFFIMDEMRKKSLENGQATTGEGLEWGVLFGFGPGITVETVVLRSVPVIS
Km [1]: 10 µM
kcat [1]: 0.0298 s⁻¹
